From ChEMBL document CHEMBL1148989, “Meroterpenoid MAPKAP (MK2) inhibitors isolated from the indonesian marine sponge Acanthodendrilla sp” (J Nat Prod, 2004)

Molecular target: MAP kinase-activated protein kinase 2 (Homo sapiens, UniProt P49137)
Assay: Inhibition of MK2

Sequence of MAP kinase-activated protein kinase 2 (P49137 whole entry): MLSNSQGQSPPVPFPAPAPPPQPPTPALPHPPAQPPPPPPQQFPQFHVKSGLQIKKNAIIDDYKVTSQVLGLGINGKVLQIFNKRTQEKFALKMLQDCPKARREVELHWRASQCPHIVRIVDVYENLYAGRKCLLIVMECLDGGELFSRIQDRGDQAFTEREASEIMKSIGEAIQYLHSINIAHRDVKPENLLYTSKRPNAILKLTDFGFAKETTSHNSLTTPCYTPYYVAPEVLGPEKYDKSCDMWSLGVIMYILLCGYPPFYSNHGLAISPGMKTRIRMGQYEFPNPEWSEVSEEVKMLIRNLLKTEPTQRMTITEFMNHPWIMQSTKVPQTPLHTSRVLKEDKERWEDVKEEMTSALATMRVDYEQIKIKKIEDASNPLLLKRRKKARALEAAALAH

SMILES	IC50 [µM]
CC1=CC[C@H]2[C@@](C)(CC[C@H]3C(C)(C)CCC[C@]23C)[C@@H]1Cc1cc(C(=O)O)ccc1O	20
CC1=C(CC/C(C)=C/Cc2cc(C(=O)O)ccc2O)[C@@]2(C)CCCC(C)(C)[C@@H]2CC1	9.6
